# Experimental data published in ChEMBL document CHEMBL1201862, “PubChem BioAssay data set” (2004).
#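 A five-concentration, 48-hour dose response in 96-well plates underlies each endpoint, interpolated linearly between surrounding concentrations. The concentration for 50% growth inhibition is given as GI50.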 Calls of active or inactive are those of the source. Rule as the data show it: active = GI50 up to about 1.1 µM and inactive = higher.
# Experiments:
# Experiment in all cases: inhibition of tumour cell growth, NCI panel, 48 h
# OVCAR-4 = tested on: OVCAR-4
# K562 = tested on: K562
# MDA-N = tested on: MDA-N
# A549 = tested on: A549
# CAKI-1 = tested on: CAKI-1
# MOLT-4 = tested on: MOLT-4
# RXF 393 = tested on: RXF 393
# 786-0 = tested on: 786-0
# UACC-257 = tested on: UACC-257
# ACHN = tested on: ACHN
# IGROV-1 = tested on: IGROV-1
# LOX IMVI = tested on: LOX IMVI
# SN12C = tested on: SN12C
# CCRF-CEM = tested on: CCRF-CEM
# Malme-3M = tested on: Malme-3M
# SK-MEL-28 = tested on: SK-MEL-28
# SF-539 = tested on: SF-539
# HL-60 = tested on: HL-60
# T47D = tested on: T47D
# HOP-18 = tested on: HOP-18
smiles,measurement,setting,value
COC(=O)NC1C(C)OC(OC2C/C=C(/C)C3C=CC4C(OC5CC(OC6CCC(OC7CC(O)C(OC8CCC(O)C(C)O8)C(C)O7)C(C)O6)C(OC(C)=O)C(C)O5)C(C)CC(C)C4C3(C)/C(O)=C3/C(=O)OC4(CC(C=O)=CC(O)C4/C=C\2C)C3=O)CC1(C)[N+](=O)[O-] (stereo not given),GI50,OVCAR-4,1820 nM (inactive)
same,GI50,K562,885 nM (active)
same,GI50,MDA-N,661 nM (active)
same,GI50,A549,1770 nM (inactive)
same,GI50,CAKI-1,2490 nM (inactive)
same,GI50,MOLT-4,474 nM (active)
same,GI50,RXF 393,551 nM (active)
same,GI50,786-0,861 nM (active)
same,GI50,UACC-257,724 nM (active)
same,GI50,ACHN,1020 nM (active)
same,GI50,IGROV-1,3440 nM (inactive)
same,GI50,LOX IMVI,397 nM (active)
same,GI50,SN12C,964 nM (active)
same,GI50,CCRF-CEM,178 nM (active)
same,GI50,Malme-3M,421 nM (active)
same,GI50,SK-MEL-28,403 nM (active)
same,GI50,SF-539,340 nM (active)
same,GI50,HL-60,1240 nM (inactive)
same,GI50,T47D,2060 nM (inactive)
same,GI50,HOP-18,2150 nM (inactive)
